Consider six molecules from patent US20060069123A1, “Substituted dipiperidine CCR2 antagonists” (priority 2004, published 2006).

Assay [1] has as its system Lewis rats.
The test system of assay [2] is DBA1 mice. The conditions noted are these: 100 mg/kg ip, bid, day 20 to day 35, in either vehicle.
Experimental: Collagen-Induced Arthritis Model
In a collagen-induced arthritis model in mice, DBA1 mice were immunized with bovine type II collagen on day 0, injected (sc) with lipopolysaccharide (LPS) on day 21, and dosed (ip, bid) with a test compound at either 25, 50 or 100 mg/kg from day 20 to day 35. Body weight was monitored, and clinical disease score recorded every 2-3 days starting on day 20.
Test compound was dosed in one of two vehicles:
• 1) 10% Pharmasolve:20% PEG-400:70% of a 1% solution of Tween-80 in water; or, • 2) 30% PEG400:20% Solutol:50% of a 0.1 N solution of NaHCO3.
Assay [3] has as its system THP-1 cells. Description: MCP-1 Induced Chemotaxis in THP-1 Cells. It is filed as cell-based. The conditions noted are these: Homo sapiens, read-out: Inhibition of MCP-1 Induced Chemotaxis IC50.
Assay [4] deals with Lewis rats. Description: Adjuvant-Induced Arthritis Model (Therapeutic Dosing from Day 12-16). The assay is classed as in vivo. From the text: Adjuvant-Induced Arthritis Model (Therapeutic Dosing from Day 12-16)
Assay [5] has as its system THP-1 cells. The conditions noted are these: Homo sapiens; for IC50: THP-1, read-out: Inhibition of MCP-1 Induced Calcium Ion Influx IC50.
The subject of assay [6] is BALB/c female mice. The assay is described as follows: Mouse Model of Allergic Asthma. It is filed as in vivo. The conditions noted are these: 100 mg/kg ip. The text has this: Mouse Model of Allergic Asthma: An allergic asthma model in mice was used to test compounds of the invention for therapeutic effect on asthmatic response as a function of airway inflammation and hyperresponsiveness ([…], et al., J. Phar. Exp. Ther., 2000, 295: 912-926). Airway hyperresponsiveness in asthmatic patients is a cardinal feature of allergic asthma and is maintained as a result of persistent airway inflammation. Eosinophils are the prominent cells involved in airway inflammation and are found in large numbers in sputum and bronchoalveolar lavage fluids. Airway responsiveness was measured in unrestrained mice by noninvasive whole body plethysmography using a BioSystem plethysmography instrument (BUXCO, Troy, N.Y.). Each animal was individually placed in the plethysmography instrument chamber and chamber pressure was used as a measure of the difference between thoracic volume expansion or contraction and air volume removed or added to the chamber during breathing. The differential of this function with respect to time produced a pseudo flow value that was proportionate to the difference between the rate of the thoracic volume expansion and nasal air flow (Hamelmann, et al., J. Respir. Crit. Care Med., 1997, 156: 766-775). Three treatment groups of BALB/c female mice (6-8 weeks old) were tested in the 32 day study: • Group 1: vehicle control phosphate buffered saline (PBS)-sensitized and PBS-challenged mice; • Group 2: positive control ovalbumin (OVA)-sensitized and OVA-challenged mice; and, • Group 3: OVA-sensitized and OVA-challenged mice treated with Compound 13. […] • Group 1 mice were sensitized by injection (ip) with PBS; and, • Group 2 mice were OVA sensitized by injection (ip) with OVA (20 μg) dissolved in PBS adsorbed on 2.25 mg alum. […] Day 32: The three treatment groups were challenged via airway by means of methacholine inhalation and asthmatic response was measured as a function of airway hyper-responsiveness. A baseline reading over a 5 min period for each of the mice in the three treatment groups was taken in the plethysmography instrument, then the baseline readings were averaged. • Group 1 mice were nebulized with saline at increasing doses (1-30 mg/ml) over a 2 min period. • Group 2 (first subset) and Group 3 mice were nebulized with methacholine at increasing doses (1-30 mg/ml) over a 2 min period. Post-Challenge Phase A 5 min post-challenge reading for each of the mice was taken and the readings were averaged. Reduction in airway hyperresponsiveness was calculated according to the following formula: [formula] Airway inflammation was measured by eosinophil cell count in bronchoalveolar saline lavage samples (1 mL) of the mice from the three groups. […] The number of eosinophils was counted and the cell concentration adjusted to 0.1×10^6/mL.

Assay [7] deals with T1, CCR2 (Homo sapiens, UniProt P41597).
T1 sequence (P41597 1-360 isoform P41597-2): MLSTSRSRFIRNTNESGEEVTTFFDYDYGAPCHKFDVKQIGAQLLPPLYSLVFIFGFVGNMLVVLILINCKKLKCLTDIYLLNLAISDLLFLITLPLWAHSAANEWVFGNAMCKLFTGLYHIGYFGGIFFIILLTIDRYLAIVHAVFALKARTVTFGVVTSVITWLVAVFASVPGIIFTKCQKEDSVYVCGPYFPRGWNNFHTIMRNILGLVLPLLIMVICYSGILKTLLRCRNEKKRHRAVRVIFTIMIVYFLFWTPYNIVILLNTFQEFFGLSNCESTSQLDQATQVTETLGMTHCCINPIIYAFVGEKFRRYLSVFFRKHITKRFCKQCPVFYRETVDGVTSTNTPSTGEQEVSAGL

Setting [8] is: OVA-sensitized and OVA-challenged mice.
Setting [9] is: THP-1 cells, MCP-1 0.01 μg/mL, 3 hours.
The mark [10] stands for this setting: orally, once per day, 3 mg/kg, days 10-14 (positive control).
Where [11] appears, read: orally, once per day, 3 mg/kg (positive control), therapeutic study.

Like-named read-outs stand apart in the source and are kept apart here.

As to `O=C(O)C(C1CCN(C(=O)/C=C/c2cc(F)c(F)c(F)c2)CC1)N1CCC(c2c[nH]c3ccccc23)CC1` (stereo not drawn) [Cpd 6, [4-(1H-indol-3-yl)-piperidin-1-yl]-{1-[(2E)-3-(3,4,5-trifluoro-phenyl)-acryloyl]-piperidin-4-yl}-acetic acid], in assay [1] (ip, bid, 100 mg/kg, days 0-14), the “decrease in swelling in the injected paws” value is 40% and the “swelling of the contralateral paws” value is recorded as “insignificant swelling”. The “inhibited the development of arthritis (clinical disease score on day 35)” value in assay [2] was “greater than 90%”. Moreover, the half-maximal inhibitory concentration (IC50) (in general, the concentration at which inhibition is half-maximal) in assay [3] (THP-1, 3 h) was found to be 8 nM. In addition, in assay [4] (ip, bid, 100 mg/kg, days 12-16), the “decreased swelling in the injected paw” value turned out to be 40% and the “inhibited contralateral paw swelling” value is 51%. Further, the IC50 in assay [5] is 5 nM.

Consider `O=C(O)[C@H](C1CCN(C(=O)/C=C/c2cc(F)c(F)c(F)c2)CC1)N1CCC(c2c[nH]c3ccccc23)CC1` [Cpd 13, (S)-{[4-(1H-indol-3-yl)-piperidin-1-yl]}-{1-[(2E)-3-(3,4,5-trifluoro-phenyl)-acryloyl]-piperidin-4-yl}-acetic acid], for which, in assay [6] (Group 3: OVA-sensitized and OVA-challenged mice, methacholine challenge day 32, n=4), the “Airway Hyperresponsiveness (whole body plethysmography reading)” value amounted to 1147±49. The “Eosinophil Infiltration (eosinophil cell count in bronchoalveolar lavage)” value in assay [6] (Group 3: OVA-sensitized and OVA-challenged mice, n=3) is 0.2±0.1 ×10^5/ml. In addition, in assay [6] (setting [8]), the “reduction in airway hyperresponsiveness compared to the non-treated mice” value is given as about 36% and the “reduction in airway inflammation compared to the non-treated mice” value was determined as 75%.

For `O=C(/C=C/c1ccc([N+](=O)[O-])cc1)OCC(C1CCN(C(=O)/C=C/c2ccc([N+](=O)[O-])cc2)CC1)N1CCC(c2c[nH]c3ccccc23)CC1` (stereo not drawn) [Cpd 251, (2E)-3-(4-nitro-phenyl)-acrylic acid 2-[4-(1H-indol-3-yl)-piperidin-1-yl]-2-{1-[(2E)-3-(4-nitro-phenyl)-acryloyl]-piperidin-4-yl}-ethyl ester], the IC50 in assay [7] is 390 nM; in assay [3] (setting [9]), 170 nM; in assay [5], 560 nM.

Take `O=C(C=Cc1ccc(F)c(F)c1)N1CCC(C(CO)N2CCC(c3c[nH]c4ccc(F)cc34)CC2)CC1` (stereo not drawn) [Cpd 254, (2E)-3-(3,4-difluoro-phenyl)-1-(4-{1-[4-(5-fluoro-1H-indol-3-yl)-piperidin-1-yl]-2-hydroxy-ethyl}-piperidin-1-yl)-propenone]: the half-maximal inhibitory concentration (IC50) in assay [7] worked out at 120 nM; in assay [3] (setting [9]), 20 nM; in assay [5], 30 nM.

For `O=C(/C=C/c1cc(F)cc(F)c1)N1CCC(C(CO)N2CCC(c3c[nH]c4ccc(O)cc34)CC2)CC1` (stereo not drawn) [Cpd 259, (2E)-3-(3,5-difluoro-phenyl)-1-(4-{2-hydroxy-1-[4-(5-hydroxy-1H-indol-3-yl)-piperidin-1-yl]-ethyl}-piperidin-1-yl)-propenone], the IC50 was determined as 2 nM in assay [7] and 5 nM in assay [3] (setting [9]). Further, the inhibition – broadly, the percentage by which the read-out fell short of the control – at 25 µM in assay [5] (THP-1, read-out: Inhibition of MCP-1 Induced Calcium Ion Influx, percent inhibition) came out at 88%.

On to `COc1ccc2c(c1)c(CC(=O)O)c(C)n2C(=O)c1ccc(Cl)cc1` [Indomethacin, indomethacin, reference compound], for which, in assay [1] (setting [10]), the “inhibited contralateral paw swelling” value is 72% and the “inhibited swelling in the adjuvant-injected paws” value is listed as 38%. In assay [4] (setting [11]), the “inhibited adjuvant-injected paw swelling” value is reported as 40% and the “inhibited contralateral paw swelling” value turned out to be 69%.
